Laboratory results taken from PMC11418123, “Structure of a truncated human GlcNAc-1-phosphotransferase variant reveals the basis for its hyperactivity” (The Journal of Biological Chemistry, 2024).

Key:
S1S3 [1] = molecular target: T1, S1S3 (Homo sapiens, UniProt Q3T906, H959F); test: PTase activity assay, UDP-[3H]GlcNAc; assay type: biochemical; conditions: H279 = H959 of full-length hPTase
T1 construct: gene GNPTAB; soluble truncation, no TM domains; S1 (233 aa) replaced by 29-aa Dictyostelium discoideum PTase linker; Notch1 to S1P site deleted, GGSGG linker; melittin signal, N-HA, C-HPC4; secreted from T. ni cells; single chain, dimer
T1 sequence (Q3T906 929-1214 H959F limits assumed, one chain of several): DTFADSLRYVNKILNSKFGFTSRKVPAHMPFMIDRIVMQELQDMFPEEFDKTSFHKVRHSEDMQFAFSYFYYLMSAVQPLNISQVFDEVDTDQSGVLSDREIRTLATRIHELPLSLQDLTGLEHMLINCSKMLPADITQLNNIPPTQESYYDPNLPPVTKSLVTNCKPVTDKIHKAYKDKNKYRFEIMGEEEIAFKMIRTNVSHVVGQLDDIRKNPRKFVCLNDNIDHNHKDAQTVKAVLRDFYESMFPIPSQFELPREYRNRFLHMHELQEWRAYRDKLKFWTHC

Dm PTase = molecular target: T2, Dm PTase (Drosophila melanogaster, UniProt A1Z7S7); test: PTase activity assay, UDP-[3H]GlcNAc; assay type: biochemical; conditions: donor, labelled compound; acceptor 100 mM α-MM
T2 construct: gene Gnptab; soluble, without N- and C-terminal TM domains and cytosolic tails; melittin signal, N-HA, C-HPC4; secreted from T. ni cells; single chain; H375 and F378 correspond to human H956 and H959
T2 sequence (A1Z7S7 47-630 limits assumed): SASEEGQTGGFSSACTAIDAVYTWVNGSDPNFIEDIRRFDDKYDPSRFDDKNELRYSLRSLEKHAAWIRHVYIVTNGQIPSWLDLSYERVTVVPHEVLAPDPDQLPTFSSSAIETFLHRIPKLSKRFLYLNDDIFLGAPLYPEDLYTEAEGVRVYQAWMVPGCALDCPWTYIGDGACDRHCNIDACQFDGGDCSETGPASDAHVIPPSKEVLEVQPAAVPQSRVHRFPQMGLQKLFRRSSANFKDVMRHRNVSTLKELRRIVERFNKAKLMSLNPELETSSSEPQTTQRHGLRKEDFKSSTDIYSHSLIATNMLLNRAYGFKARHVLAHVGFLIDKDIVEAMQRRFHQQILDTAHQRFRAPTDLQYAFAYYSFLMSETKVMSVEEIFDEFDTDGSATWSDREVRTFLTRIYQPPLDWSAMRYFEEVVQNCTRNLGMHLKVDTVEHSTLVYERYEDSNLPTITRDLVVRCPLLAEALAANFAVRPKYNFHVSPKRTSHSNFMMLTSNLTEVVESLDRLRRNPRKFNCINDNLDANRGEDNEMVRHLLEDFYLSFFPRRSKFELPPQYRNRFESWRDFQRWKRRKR

[2] = molecular target: T3, hPTase-αβ (soluble full-length human GlcNAc-1-phosphotransferase) (Homo sapiens, UniProt Q3T906); test: cryo-EM structure, […] Å; assay type: binding; conditions: 10 mM UDP-GlcNAc, 10 mM MnCl2, 6 h at 4 °C; donor site in the catalytic pocket with two Mn2+
T3 construct: gene GNPTAB; soluble secreted form of the alpha/beta precursor, cut by site-1 protease at K928/D929; no gamma subunit; dimer
T3 sequence (Q3T906 44-928 limits assumed): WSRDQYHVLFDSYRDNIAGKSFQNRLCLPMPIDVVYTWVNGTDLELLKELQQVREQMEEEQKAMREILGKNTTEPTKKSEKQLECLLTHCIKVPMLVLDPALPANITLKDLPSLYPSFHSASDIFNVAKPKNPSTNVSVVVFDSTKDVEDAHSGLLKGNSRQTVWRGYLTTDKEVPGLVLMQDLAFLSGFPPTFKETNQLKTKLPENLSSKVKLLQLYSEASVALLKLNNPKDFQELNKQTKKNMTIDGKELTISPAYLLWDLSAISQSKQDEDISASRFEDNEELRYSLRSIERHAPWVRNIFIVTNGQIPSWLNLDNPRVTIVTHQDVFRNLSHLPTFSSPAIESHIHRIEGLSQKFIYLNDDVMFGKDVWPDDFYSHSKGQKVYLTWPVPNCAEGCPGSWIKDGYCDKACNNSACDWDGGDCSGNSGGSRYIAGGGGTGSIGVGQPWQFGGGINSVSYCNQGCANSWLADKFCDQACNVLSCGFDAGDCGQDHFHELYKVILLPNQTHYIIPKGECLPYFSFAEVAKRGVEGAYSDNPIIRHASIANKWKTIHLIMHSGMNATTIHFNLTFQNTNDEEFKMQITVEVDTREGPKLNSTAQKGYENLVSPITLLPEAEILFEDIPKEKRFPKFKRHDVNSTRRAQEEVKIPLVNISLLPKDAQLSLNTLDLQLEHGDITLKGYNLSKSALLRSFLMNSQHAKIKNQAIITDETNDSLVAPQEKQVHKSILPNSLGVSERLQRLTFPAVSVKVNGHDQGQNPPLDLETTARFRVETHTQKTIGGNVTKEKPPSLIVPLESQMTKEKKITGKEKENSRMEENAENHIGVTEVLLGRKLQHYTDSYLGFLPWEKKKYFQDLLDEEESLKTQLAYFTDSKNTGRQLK
T3 sequence (Q3T906 929-1214 limits assumed): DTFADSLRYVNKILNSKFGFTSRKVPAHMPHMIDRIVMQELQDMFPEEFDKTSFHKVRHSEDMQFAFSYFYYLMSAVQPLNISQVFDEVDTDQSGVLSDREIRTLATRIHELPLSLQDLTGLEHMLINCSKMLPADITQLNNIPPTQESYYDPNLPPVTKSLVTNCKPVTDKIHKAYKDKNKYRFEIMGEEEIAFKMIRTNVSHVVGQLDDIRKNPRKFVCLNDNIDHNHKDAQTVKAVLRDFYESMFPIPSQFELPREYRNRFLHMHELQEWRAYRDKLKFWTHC

S1S3 [3] = molecular target: T4, S1S3 (Homo sapiens, UniProt Q3T906); test: UDP-[3H]GlcNAc radiolabel transfer assay, QAE-Sephadex; assay type: biochemical; conditions: saturating UDP-[3H]GlcNAc; Mn2+ and Mg2+, pH 7.4, 37 °C (general assay); mean of two assays
T4 construct: gene GNPTAB; soluble truncation, no TM domains; S1 (233 aa) replaced by 29-aa Dictyostelium discoideum PTase linker; Notch1 to S1P site deleted, GGSGG linker; melittin signal, N-HA, C-HPC4; secreted from T. ni cells; single chain, dimer

[4] = molecular target: soluble S1S3, truncated hyperactive variant of human GlcNAc-1-phosphotransferase (PTase) αβ lacking both transmembrane domains and cytosolic tails (human | Dictyostelium discoideum); test: cryo-EM structure; single-particle cryo-EM of purified soluble S1S3 at 0.8 mg/ml; 3.4 Å
[5] = substrate: CO[C@H]1O[C@H](CO)[C@@H](O)[C@H](O)[C@@H]1O; test: UDP-[3H]GlcNAc radiolabel transfer assay, QAE-Sephadex; assay type: biochemical, Homo sapiens; conditions: saturating UDP-[3H]GlcNAc, Mn2+ and Mg2+, pH 7.4, 37 °C (general assay), mean of two assays

## CC(=O)N[C@H]1[C@H](O[C@H]2[C@H](O)[C@@H](NC(C)=O)C(O)O[C@@H]2CO)O[C@H](CO)[C@@H](O[C@@H]2O[C@H](CO[C@H]3O[C@H](CO[C@H]4O[C@H](CO)[C@@H](O)[C@H](O)[C@@H]4O[C@H]4O[C@H](CO)[C@@H](O)[C@H](O)[C@@H]4O)[C@@H](O)[C@H](O[C@H]4O[C@H](CO)[C@@H](O)[C@H](O)[C@@H]4O[C@H]4O[C@H](CO)[C@@H](O)[C@H](O)[C@@H]4O)[C@@H]3O)[C@@H](O)[C@H](O[C@H]3O[C@H](CO)[C@@H](O)[C@H](O)[C@@H]3O[C@H]3O[C@H](CO)[C@@H](O)[C@H](O)[C@@H]3O[C@H]3O[C@H](CO)[C@@H](O)[C@H](O)[C@@H]3O)[C@@H]2O)[C@@H]1O (some centres unmarked) [Man-9, Man9GlcNAc2]
S1S3 [1]; 0.34 mM Man-9
  PTase activity assay, UDP-[3H]GlcNAc: The His-279-Phe mutation caused a significant decrease in activity toward the three acceptors

## CC(=O)N[C@H]1[C@@H](OP(=O)(O)OP(=O)(O)OC[C@H]2O[C@@H](n3ccc(=O)[nH]c3=O)[C@H](O)[C@@H]2O)O[C@H](CO)[C@@H](O)[C@@H]1O [UDP-GlcNAc]
Dm PTase
  PTase activity assay, UDP-[3H]GlcNAc: Dm PTase is capable of using UDP-GlcNAc as a nucleotide sugar donor
[2]
  cryo-EM structure, 2.9 Å: we resolved the cryo-EM structure of hPTase in the presence of the nucleotide donor sugar

## OC[C@H]1O[C@H](O[C@@H]2C(O)O[C@H](CO)[C@@H](O)[C@@H]2O)[C@@H](O)[C@@H](O)[C@@H]1O (stereo partly drawn) [mannobiose, 2-α-mannobiose]
S1S3 [3]
  Km: 53.6 mM

## CO[C@H]1O[C@H](CO)[C@@H](O)[C@H](O)[C@@H]1O [α-MM, methyl α-D-mannopyranoside]
S1S3 [1]; 100 mM α-MM
  PTase activity assay, UDP-[3H]GlcNAc: The His-279-Phe mutation caused a significant decrease in activity toward the three acceptors

## soluble S1S3, truncated hyperactive variant of human GlcNAc-1-phosphotransferase (PTase) αβ lacking both transmembrane domains and cytosolic tails (enzyme)
[4]
  stoichiometry N: 2

B1: hPTase-αβ (soluble full-length human GlcNAc-1-phosphotransferase) (Homo sapiens) (protein)
chain 1: WSRDQYHVLFDSYRDNIAGKSFQNRLCLPMPIDVVYTWVNGTDLELLKELQQVREQMEEEQKAMREILGKNTTEPTKKSEKQLECLLTHCIKVPMLVLDPALPANITLKDLPSLYPSFHSASDIFNVAKPKNPSTNVSVVVFDSTKDVEDAHSGLLKGNSRQTVWRGYLTTDKEVPGLVLMQDLAFLSGFPPTFKETNQLKTKLPENLSSKVKLLQLYSEASVALLKLNNPKDFQELNKQTKKNMTIDGKELTISPAYLLWDLSAISQSKQDEDISASRFEDNEELRYSLRSIERHAPWVRNIFIVTNGQIPSWLNLDNPRVTIVTHQDVFRNLSHLPTFSSPAIESHIHRIEGLSQKFIYLNDDVMFGKDVWPDDFYSHSKGQKVYLTWPVPNCAEGCPGSWIKDGYCDKACNNSACDWDGGDCSGNSGGSRYIAGGGGTGSIGVGQPWQFGGGINSVSYCNQGCANSWLADKFCDQACNVLSCGFDAGDCGQDHFHELYKVILLPNQTHYIIPKGECLPYFSFAEVAKRGVEGAYSDNPIIRHASIANKWKTIHLIMHSGMNATTIHFNLTFQNTNDEEFKMQITVEVDTREGPKLNSTAQKGYENLVSPITLLPEAEILFEDIPKEKRFPKFKRHDVNSTRRAQEEVKIPLVNISLLPKDAQLSLNTLDLQLEHGDITLKGYNLSKSALLRSFLMNSQHAKIKNQAIITDETNDSLVAPQEKQVHKSILPNSLGVSERLQRLTFPAVSVKVNGHDQGQNPPLDLETTARFRVETHTQKTIGGNVTKEKPPSLIVPLESQMTKEKKITGKEKENSRMEENAENHIGVTEVLLGRKLQHYTDSYLGFLPWEKKKYFQDLLDEEESLKTQLAYFTDSKNTGRQLK
chain 2: DTFADSLRYVNKILNSKFGFTSRKVPAHMPHMIDRIVMQELQDMFPEEFDKTSFHKVRHSEDMQFAFSYFYYLMSAVQPLNISQVFDEVDTDQSGVLSDREIRTLATRIHELPLSLQDLTGLEHMLINCSKMLPADITQLNNIPPTQESYYDPNLPPVTKSLVTNCKPVTDKIHKAYKDKNKYRFEIMGEEEIAFKMIRTNVSHVVGQLDDIRKNPRKFVCLNDNIDHNHKDAQTVKAVLRDFYESMFPIPSQFELPREYRNRFLHMHELQEWRAYRDKLKFWTHC
notes: soluble secreted form of the alpha/beta precursor, cut by site-1 protease at K928/D929; no gamma subunit; dimer
[5]
  Km: 57,100 μM
  kcat: 0.153 s⁻¹
